One experiment concerns Akt. Nature of the experiment: IGF-I mediated Akt phosphorylation, western blot. Type of experiment: cell-based, human. Particulars: MCF7 cells; IGF-I stimulated; A12 even at 10 nM. The protocol:
(§1) To visualize the inhibitory effect of the anti-IGF-IR antibodies on IGF-I signaling, receptor auto-phosphorylation and downstream effector molecule phosphorylation analysis was performed in the presence or absence of antibody A12 or 2F8. The MCF7 human breast cancer cell line was selected for use due to its high IGF-IR density. Cells were plated into 10 cm or 6 well culture dishes and grown to 70-80% confluence. The monolayers were then washed twice in PBS and cultured overnight in serum free defined medium. Anti-IGF-IR antibody was then added in fresh serum-free media (100 nM-10 nM) and incubated cells 30 minutes before addition of ligand (10 nM). Cells were incubated with ligand for 10 minutes, then placed on ice and washed with ice-cold PBS. […] Tyrosine phosphorylated protein was detected on the blot using an anti-p-tyrosine antibody (Cell Signaling #9411) and an anti-mouse-HRP secondary antibody. IGF-IR was detected with monoclonal antibody C-20 (Santa Cruz). For Akt phosphorylation, phospho-Akt was detected with antibody #559029 and total Akt with #559028 (BD Pharmingen). For MAPK phosphorylation, phospho-p44/42 was detected with #9101 and total p44/42 with #9102 (Cell Signaling Tech.). […]

The subject of another experiment is MAPK. Nature of the experiment: IGF-I mediated MAPK phosphorylation, western blot. Type of experiment: cell-based, human. The following applies: MCF7 cells; IGF-I stimulated. The procedure: as §1
Experiment [1] deals with T1, IGF-IR (Homo sapiens, UniProt P08069). Description: IGF-I mediated IGF-IR auto-phosphorylation, western blot. Type of experiment: cell-based. The arrangement: endogenous in cells; HT-29; BxPC-3; HEL.
The subject of experiment [2] is HT-29 human colon carcinoma. Description: HT-29 xenograft, A12 with CPT-11 or paclitaxel. The class given is in vivo, nu/nu mice. The procedure: […] nu/nu mice were injected subcutaneously with HT-29 human colon carcinoma cell suspension, at 5×10^6 cells in 0.4 ml mixed 1:1 with Matrigel. […] All treatments were administered by intraperitoneal injection.
Treatment continued for six weeks and tumor measurements were recorded twice weekly using the formula Volume=(π/6)l×w^2. At day 21 four animals per group were sacrificed and the tumors resected for histological evaluation. Treatment and tumor measurements continued on the remaining animals until day 40. At that time final tumor measurements were recorded, animals sacrificed, and four per group had tumor resected for endpoint histological evaluation.

In experiment [3] the target is T1, IGF-IR. Description: FACs binding analysis to human cell lines. The class given is cell-based. Also on record: endogenous in cells; HT-29; BxPC-3; HEL. The following applies: 0.5 μg A12. The protocol:
Since A12 was capable of immunoprecipitating endogenous IGF-IR, we were therefore interested in determining if A12 could also be used as detection antibody for fluorescence activated cell sorting (FACs). Human tumor cell lines were grown in culture, scraped into ice-cold PBS, and counted. Primary antibody, A12 (0.5 μg), was added to approximately 5 million cells in 250 μl PBS/5% FBS and incubated on ice for 1 hour. The cells were then diluted to 3 mls in PBS/5% FBS, pelleted, and the supernatant aspirated. Secondary phycoerythin (PE)-labeled goat anti-human IgG F(ab)2 fragment was then added in 250 μl PBS/5% FBS at 1:200 and incubated on ice for 60 minutes. Afterwards, the cells were again diluted and pelleted, as before, then resuspended in 500 μl PBS/5% FBS. FACs analysis was then performed on a Epics XL unit (Coulter). […] IGF-IR negative mouse embryo fibroblasts (R-cells) (obtained from R. Baserga, Thomas Jefferson University, Philadelphia, Pa.) served as the negative control.

In experiment [4] the target is T1, IGF-IR. Description: Blocking of 125I-IGF-I binding to immobilized soluble IGF-IR. Also on record: recombinant extracellular portion of human IGF-IR was used to screen. The protocol: Forty 40 pM of ^125I-IGF-I was then added and the plates incubated an additional 90 minutes. […] Affinity was determined by BIAcore analysis according to manufacturer's specifications (Pharmacia BIACORE 3000). Soluble IGF-IR was immobilized on the sensor chips and antibody binding kinetics determined. […] The activity of A12 remained the same, irrespective of whether the light chain was engineered with a human lambda or kappa class constant region. Antibody A12 engineered with a lambda class light chain was utilized in all subsequent procedures.

“A12: fully human IgG1 anti-IGF-IR antibody, lambda light chain; VH SEQ ID NO:2, VL SEQ ID NO:10; affinity matured from 2F8”: the “inhibition of Akt phosphorylation” value with Akt is on record as “significantly inhibited Akt phosphorylation”. The “inhibition of MAPK phosphorylation” value in the experiment with MAPK is “considerably inhibited”. Also, the “inhibition of IGF-IR auto-phosphorylation” value with IGF-IR [1] (BxPC-3 pancreatic cancer cells) and in the experiment with IGF-IR [1] (HT-29 colorectal cancer cells) was “inhibited auto-phosphorylation of IGF-IR” throughout. Moreover, in the experiment with IGF-IR [1] (MCF7 cells, serum deprived, no ligand), the “agonist activity: receptor phosphorylation by antibody alone” value is on record as “did not induce receptor phosphorylation”. In the experiment with IGF-IR [1] (MCF7 cells, 10 nM IGF-I), the “block of IGF-IR phosphorylation” value is “nearly completely blocked phosphorylation”. Further, the T/C % in experiment [2] (day 12, ip, A12 1 mg 3 times per week, irinotecan 2 mg or paclitaxel 121 μg every 7 days) is 69%; in experiment [2] (day 15, same regimens), 62%; in experiment [2] (day 19, same regimens), 64%; in experiment [2] (day 22, same regimens), 58%; in experiment [2] (day 26, same regimens) it was 62%; in experiment [2] (day 29, same regimens) it was 61%. The T/C % is 58% in experiment [2] (day 33, same regimens); 53% in experiment [2] (day 36, same regimens); 54% in experiment [2] (day 40, same regimens). The “inhibition of growth of HT-29 xenografts compared to TBS control” value in experiment [2] (single agent) is recorded as “significantly (P<0.02) inhibited”. Moreover, the FACs shift entry with IGF-IR [3] (HEL human leukemia cell line) and with IGF-IR [3] (MCF7 human breast cancer cell line) was “fully shifted” throughout. Besides, the “inhibition of radiolabeled IGF-I binding compared with cold ligand” value with IGF-IR [4] (FIG. 15) was “to a greater extent than competition with cold ligand”. Further, the “increase in blocking activity of ligand for immobilized receptor, A12 versus 2F8” value with IGF-IR [4] (full IgG) was “at least a three-fold increase”.

Source of the values: patent publication US7968093B2, “Fully human antibodies directed against the human insulin-like growth factor-1 receptor” (ImClone LLC, priority 2003, dated 2011).
